According to patent publication US10465167B2, “Adjuvant for rapid proliferation of human mesenchymal stem cells in vitro, method for rapid proliferation of human mesenchymal stem cells in vitro, method for growth factor harvested from rapid proliferation of human mesenchymal stem cells in vitro and use thereof” (BUDDHIST TZU CHI MEDICAL FOUNDATION, priority 2013, dated 2019):

Legend:
[1] = system: adipose tissue-derived stem cells; assay: Western Blot of p21 and CDK2 proteins, normal vs high oxygen; format: cell-based, human; conditions: high oxygen environment (37.5%); FIG. 4B
From the text: The culture conditions of the adipose tissue-derived stem cell are divided into four groups as described in the aforementioned section 5. The Western Blot Analysis is used for the analysis to observe the effect of the controlling and adjusting the cell cycle related proteins of the adipose tissue-derived stem cells cultured in different culture conditions on the protein expression of the cell cycle related proteins (such as p21 and CDK2). Similarly, the expression of the β-actin protein is used as a control for the standardization of quantifying each aforementioned protein expression into data.

[2] = system: adipose tissue-derived stem cells; assay: Cell growth density analysis, normal vs high oxygen environment; format: cell-based, human; conditions: high oxygen environment (37.5%), seventh day; FIG. 4A
From the text: In this experiment, the culture conditions are divided into four groups, respectively: a culture group with a basic medium and FGF-2 in a normal oxygen environment, a culture group with a basic medium and FGF-2 in a high oxygen environment, a culture group with a basic medium and the adjuvant of the present invention in a normal oxygen environment, and a culture group with a basic medium and the adjuvant of the present invention in a high oxygen environment, wherein the high oxygen environment refers to a partial pressure of oxygen approximately equal to 37.5%, and parameters of the culture conditions (such as a basic medium, an incubator and a cell culture density) are the same as described in Section 1 of the aforementioned Experiment 1.
The cells are cleaned once by a phosphate buffer solution (PBS), and then reacted with a Trypsin-EDTA solution at 37 degrees Celsius for 5 minutes, and then the cell spatula is used to remove incompletely reacted cells carefully, and the same proportion of a medium containing a fetal bovine serum is used for neutralizing the enzyme activity of trypsin. The number of cells is measured by a cell counter (Vi-CELL AS, Beckman Coulter). […] Each set of experiment data is measured for three times, and the result is expressed in term of mean± standard deviation.

## FGF-2: basic fibroblast growth factor, concentration of 10 ng/mL (R&D Systems), comparison culture additive
[1]
  expression of the p21 protein: significant increase of the expression of the p21 protein
[2]
  total number of cells: below 2.5×10^6
